pEC50, pIC50, pKd: −log10 of the molar value. Activity calls are given as the source filed them. The rule behind the calls is not given here.
Legend:
[1] = target: Programmed cell death protein 1/Programmed cell death 1 ligand 1 (Homo sapiens, UniProt Q9NZQ7); assay: Inhibition of europium-labeled PD-1/biotinylated PD-L1 interaction (unknown origin) preincubated for 15 mins with PD-L1 followed by PD-1 addition and measured after 90 mins by TR-FRET assay; format: protein-complex assay
[2] = target: T1, Programmed cell death 1 ligand 1 (Homo sapiens, UniProt Q9NZQ7); assay: Binding affinity to human PD-L1 assessed as dissociation constant by MST analysis
T1 sequence (Q9NZQ7 whole entry, the tested form may be a part): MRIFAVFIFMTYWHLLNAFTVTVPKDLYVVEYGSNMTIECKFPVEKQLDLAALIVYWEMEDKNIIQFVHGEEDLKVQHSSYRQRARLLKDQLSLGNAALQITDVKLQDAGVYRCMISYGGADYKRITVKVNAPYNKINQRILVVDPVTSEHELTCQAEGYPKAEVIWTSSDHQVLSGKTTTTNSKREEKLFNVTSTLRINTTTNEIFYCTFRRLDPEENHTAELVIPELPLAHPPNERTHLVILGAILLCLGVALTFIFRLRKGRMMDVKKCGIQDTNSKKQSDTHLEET

[3] = target: T1, Programmed cell death 1 ligand 1; assay: Inhibition of PD-1 Fc IgG fusion protein binding to PD-L1 in human NCI-H460 cells incubated for 6 hrs by DAPI/PD-1 anti-human IgG DyLight 488 staining based fluorescence microscopy; format: cell-based
[4] = Toxicity in ICR mouse assessed as animal death at 5000 mg/kg, po administered via gavage for 2 weeks; format: organism-based; settings: in vivo, 336 h
[5] = Toxicity in ICR mouse assessed as acute side effects at 500 to 5000 mg/kg, po administered via gavage for 2 weeks; format: organism-based; settings: in vivo, 336 h, dose 500-5000 mg/kg
[6] = Toxicity in ICR mouse assessed as body weight loss at 500 to 5000 mg/kg, po administered via gavage for 2 weeks; format: organism-based; settings: in vivo, 336 h, dose 500-5000 mg/kg
[7] = Toxicity in ICR mouse assessed as reduction in kidney weight at 500 to 5000 mg/kg, po administered via gavage for 2 weeks; format: organism-based; settings: in vivo, 336 h, dose 500-5000 mg/kg
[8] = Cmax in ICR mouse at 5 mg/kg, iv; format: ADME, organism-based; set-up: dose 5 mg/kg, route iv; settings: in vivo
[9] = Half life in ICR mouse at 5 mg/kg, iv; format: ADME, organism-based; settings: in vivo
[10] = target: Programmed cell death protein 1/Programmed cell death 1 ligand 1 (Homo sapiens) (UniProt Q15116+Q9NZQ7); assay: Inhibition of PD-1/PD-L1 interaction in human A549 cells harboring low level PD-L1 expression assessed as increase in transcriptional-mediated bioluminescent signal preincubated with compound followed by washout and further cultured with Jurkat cells transfected with NFAT luciferase by bio-glo reagent based assay; format: cell-based; settings: dose 50-200 nM
[11] = Antitumor activity against humanized mouse LLC-hPD-L1 cells implanted in hPD-1 knockin C57BL/6 mouse assessed as tumor growth inhibition at 25 mg/kg, ip administered for 12 days starting from day 7 post tumor implantation and measured every 2 days relative to control; format: functional; settings: LLC-hPD-L1, 288 h, time 12 day, read-out: TGI
[12] = Toxicity in hPD-1 knockin C57BL/6 mouse implanted with humanized mouse LLC-hPD-L1 cells assessed as reduction in body weight at 10 to 25 mg/kg, ip administered for 12 days starting from day 7 post tumor implantation and measured every 3 to 4 days; format: organism-based; settings: in vivo, 288 h, dose 10-25 mg/kg, time 12 day
MC38-hPD-L1 [13] = assay: Antitumor activity against humanized mouse MC38-hPD-L1 cells implanted in hPD-1 knockin C57BL/6 mouse assessed as increase in CD8-positive T cells at 10 to 25 mg/kg, ip administered for 12 days starting from day 7 post tumor implantation by flow cytometry analysis; format: functional, organism-based; settings: dose 10-25 mg/kg, time 12.0 day
MC38-hPD-L1 [14] = assay: Antitumor activity against humanized mouse MC38-hPD-L1 cells implanted in hPD-1 knockin C57BL/6 mouse assessed as increase in CD69-positive CD137-positive T cells at 10 to 25 mg/kg, ip administered for 12 days starting from day 7 post tumor implantation by flow cytometry analysis; format: functional, organism-based; settings: dose 10-25 mg/kg, time 12.0 day
MC38-hPD-L1 [15] = assay: Antitumor activity against humanized mouse MC38-hPD-L1 cells implanted in hPD-1 knockin C57BL/6 mouse assessed as increase in IFN-gamma level at 10 to 25 mg/kg, ip administered for 12 days starting from day 7 post tumor implantation by flow cytometry analysis; format: functional, organism-based; settings: dose 10-25 mg/kg, time 12.0 day
MC38-hPD-L1 [16] = assay: Antitumor activity against humanized mouse MC38-hPD-L1 cells implanted in hPD-1 knockin C57BL/6 mouse assessed as reduction in M2 macrophages at 10 to 25 mg/kg, ip administered for 12 days starting from day 7 post tumor implantation by flow cytometry analysis; format: functional, organism-based; settings: dose 10-25 mg/kg, time 12.0 day
MC38-hPD-L1 [17] = assay: Antitumor activity against humanized mouse MC38-hPD-L1 cells implanted in hPD-1 knockin C57BL/6 mouse assessed as reduction in Treg cells at 10 to 25 mg/kg, ip administered for 12 days starting from day 7 post tumor implantation by flow cytometry analysis; format: functional, organism-based; settings: dose 10-25 mg/kg, time 12.0 day
LLC-hPD-L1 [18] = assay: Antitumor activity against humanized mouse LLC-hPD-L1 cells implanted in hPD-1 knockin C57BL/6 mouse assessed as increase in CD8-positive T cells at 10 to 25 mg/kg, ip administered for 12 days starting from day 7 post tumor implantation by flow cytometry analysis; format: functional, organism-based; settings: dose 10-25 mg/kg, time 12.0 day
LLC-hPD-L1 [19] = assay: Antitumor activity against humanized mouse LLC-hPD-L1 cells implanted in hPD-1 knockin C57BL/6 mouse assessed as increase in CD69-positive CD137-positive T cells at 10 to 25 mg/kg, ip administered for 12 days starting from day 7 post tumor implantation by flow cytometry analysis; format: functional, organism-based; settings: dose 10-25 mg/kg, time 12.0 day
LLC-hPD-L1 [20] = assay: Antitumor activity against humanized mouse LLC-hPD-L1 cells implanted in hPD-1 knockin C57BL/6 mouse assessed as increase in IFN-gamma level at 10 to 25 mg/kg, ip administered for 12 days starting from day 7 post tumor implantation by flow cytometry analysis; format: functional, organism-based; settings: dose 10-25 mg/kg, time 12.0 day
LLC-hPD-L1 [21] = assay: Antitumor activity against humanized mouse LLC-hPD-L1 cells implanted in hPD-1 knockin C57BL/6 mouse assessed as reduction in Treg cells at 10 to 25 mg/kg, ip administered for 12 days starting from day 7 post tumor implantation by flow cytometry analysis; format: functional, organism-based; settings: dose 10-25 mg/kg, time 12.0 day
NCI-H460 = assay: Cytotoxicity against human NCI-H460 cells cocultured with human PBMC cells assessed as increase in clearance of tumor cells at 100 to 200 nM preincubated for 30 mins followed by NCI-H460 cells addition and further coincubated for 24 hrs with human PBMC cells by cell impedence assay; format: functional, cell-based; settings: dose 100-200 nM, time 24.5 hrs

Chain of Programmed cell death protein 1/Programmed cell death 1 ligand 1 (Q15116 whole entry): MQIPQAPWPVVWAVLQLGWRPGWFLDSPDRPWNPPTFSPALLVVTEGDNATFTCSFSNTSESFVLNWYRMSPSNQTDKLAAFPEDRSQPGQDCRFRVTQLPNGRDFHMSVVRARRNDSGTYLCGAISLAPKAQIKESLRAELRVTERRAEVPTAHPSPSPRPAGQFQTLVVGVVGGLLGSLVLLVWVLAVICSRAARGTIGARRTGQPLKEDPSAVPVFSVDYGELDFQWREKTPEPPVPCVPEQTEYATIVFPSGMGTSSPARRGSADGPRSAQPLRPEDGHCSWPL
Chain of Programmed cell death protein 1/Programmed cell death 1 ligand 1 (Q9NZQ7 whole entry): as the sequence (Q9NZQ7 whole entry, the tested form may be a part) above

COc1cc2c(cc1CN[C@@H](CO)C(=O)O)C(=O)N(c1cccc(-c3ccccc3)c1C)C2=O
pIC50 [1]: 8.21
pKd [2]: 7.15
pEC50 [3]: 6.92
Activity [4]: Non-Toxic
Activity [5]: Non-Toxic
Activity [6]: Non-Toxic
Activity [7]: Non-Toxic
Cmax [8]: 6290 ng/mL
half-life [9]: 9.78 h
inhibition [10]: Dose-Dependent Effect
inhibition in vivo at 25 mg/kg [11]: 81.4%
Activity [12]: Non-Toxic
Activity (MC38-hPD-L1 [13]): Active
Activity (MC38-hPD-L1 [14]): Active
Activity (MC38-hPD-L1 [15]): Active
Activity (MC38-hPD-L1 [16]): Active
Activity (MC38-hPD-L1 [17]): Active
Activity (LLC-hPD-L1 [18]): Active
Activity (LLC-hPD-L1 [19]): Active
Activity (LLC-hPD-L1 [20]): Active
Activity (LLC-hPD-L1 [21]): Active
Activity (NCI-H460): Active
